# Target: T1, MET kinase (Homo sapiens, UniProt P08581)
# T1 construct: Sf9 insect cell culture expressing the kinase domain of human Met; 6x Histidine tag (TEV-cleavable) (cleaved yes); made in house; host or cells: Sf9 insect cells
# Assay: Met Bioassay (luminescence-based enzyme assay, Kinase-Glo)
# Format: biochemical
# Conditions: 10 μM ATP
# Source text: In addition to the c-Abl PK/LDH coupled assay (above), homogeneous luminescence-based inhibitor screening assays were developed for c-Abl, MET, AurA, and PDK1 kinases (among others). Each of these assays made use of an ATP depletion assay (Kinase-Glo™, Promega Corporation, Madison, Wis.) to quantitate kinase activity. The Kinase-Glo™ format uses a thermostable luciferase to generate luminescent signal from ATP remaining in solution following the kinase reaction. The luminescent signal is inversely correlated with the amount of kinase activity.
# Materials: Poly Glu-Tyr (4:1) substrate (Sigma Cat# P-0275), ATP (Sigma Cat#A-3377, FW=551), HEPES buffer, pH 7.5, Bovine serum albumin (BSA) (Roche 92423420), MgCl2, Staurosporine (Streptomyces sp. Sigma Cat#85660-1MG), white Costar 384-well flat-bottom plate (VWR Cat#29444-088). MET kinase (see below), Kinase-Glo™ (Promega Cat#V6712).
# Stock Solutions: 10 mg/ml poly Glu-Tyr in water, stored at −20° C.; 100 mM HEPES buffer, pH 7.5 (5 ml 1M stock+45 ml miliQH2O); 10 mM ATP (5.51 mg/ml in dH2O) stored at −20° C. (diluted 50 μl into total of 10 ml miliQH2O daily=50 μM ATP working stock); 1% BSA (1 g BSA in 100 ml 0.1M HEPES, pH 7.5, stored at −20° C.), 100 mM MgCl2; 200 μM Staurosporine, 2× Kinase-Glo™ reagent (made fresh or stored at −20° C.).
# Standard Assay Setup for 384-well format (20 μl kinase reaction, 40 μl detection reaction): 10 mM MgCl2; 0.3 mg/ml poly Glu-Tyr; 0.1% BSA; 1 μl test compound (in DMSO); 0.4 μg/ml MET kinase; 10 μM ATP; 100 mM HEPES buffer. Positive controls contained DMSO with no test compound. Negative controls contained 10 μM staurosporine. The kinase reactions were initiated at time t=0 by the addition of ATP. Kinase reactions were incubated at 21° C. for 60 min, then 20 μl of Kinase-Glo™ reagent were added to each well to quench the kinase reaction and initiate the luminescence reaction. After a 20 min incubation at 21° C., the luminescence was detected in a plate-reading luminometer.
# The cell pellets produced from half of a 12 L Sf9 insect cell culture expressing the kinase domain of human Met were resuspended in a buffer containing 50 mM Tris-HCl pH 7.7 and 250 mM NaCl, in a volume of approximately 40 ml per 1 L of original culture. One tablet of Roche Complete, EDTA-free protease inhibitor cocktail (Cat# 1873580) was added per 1 L of original culture. The suspension was stirred for 1 hour at 4° C. Debris was removed by centrifugation for 30 minutes at 39,800×g at 4° C. The supernatant was decanted into a 500 ml beaker and 10 ml of 50% slurry of Qiagen Ni-NTA Agarose (Cat# 30250) that had been pre-equilibrated in 50 mM Tris-HCl pH 7.8, 50 mM NaCl, 10% Glycerol, 10 mM Imidazole, and 10 mM Methionine, were added and stirred for 30 minutes at 4° C. The sample was then poured into a drip column at 4° C. and washed with 10 column volumes of 50 mM Tris-HCl pH 7.8, 500 mM NaCl, 10% Glycerol, 10 mM Imidazole, and 10 mM Methionine. The protein was eluted using a step gradient with two column volumes each of the same buffer containing 50 mM, 200 mM, and 500 mM Imidazole, sequentially. The 6× Histidine tag was cleaved overnight using 40 units of TEV protease (Invitrogen Cat#10127017) per 1 mg of protein while dialyzing in 50 mM Tris-HCl pH 7.8, 500 mM NaCl, 10% Glycerol, 10 mM Imidazole, and 10 mM Methionine at 4° C. The 6× Histidine tag was removed by passing the sample over a Pharmacia 5 ml IMAC column (Cat# 17-0409-01) charged with Nickel and equilibrated in 50 mM Tris-HCl pH 7.8, 500 mM NaCl, 10% Glycerol, 10 mM Imidazole, and 10 mM Methionine. The cleaved protein bound to the Nickel column at a low affinity and was eluted with a step gradient. The step gradient was run with 15% and then 80% of the B-side (A-side=50 mM Tris-HCl pH 7.8, 500 mM NaCl, 10% Glycerol, 10 mM Imidazole, and 10 mM Methionine; B-side=50 mM Tris-HCl pH 7.8, 500 mM NaCl, 10% Glycerol, 500 mM Imidazole, and 10 mM Methionine) for 4 column volumes each. […]
# T1 sequence (P08581 1078-1345 limits assumed): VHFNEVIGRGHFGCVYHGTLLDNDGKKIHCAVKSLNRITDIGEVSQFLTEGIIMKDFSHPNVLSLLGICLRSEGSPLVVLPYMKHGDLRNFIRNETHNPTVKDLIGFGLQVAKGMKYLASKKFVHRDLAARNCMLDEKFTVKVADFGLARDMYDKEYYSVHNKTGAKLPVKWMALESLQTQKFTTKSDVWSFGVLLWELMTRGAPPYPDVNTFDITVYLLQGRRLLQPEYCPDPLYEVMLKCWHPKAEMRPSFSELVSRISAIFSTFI
row,IC50,Compound
1,< 1000 nM,COc1ccc(-c2cnc3[nH]cc(-c4ccc(N)nc4)c3c2)cc1OC [AE56]
2,1000 to 5000 nM,COCCNc1ccc(-c2c[nH]c3ncc(-c4ccc(OC)c(OC)c4)cc23)cn1 [AE57]

# Source: patent US7709645B2, “Pyrrolo-pyridine kinase modulators” (SGX Pharmaceuticals, Inc., priority 2004, dated 2010)
